Measurements from article PMC2774688, “Cellular Ser/Thr-Kinase Assays Using Generic Peptide Substrates” (Current Chemical Genomics, 2008).

Legend:
[1] = tested on: B-Raf(V600E)-Ba/F3 cell line; test: B-Raf(V600E)-Ba/F3 proliferation assay (Cell-Titer-Glo); type: cell-based; settings: 384-well, called historical data, SD in parentheses (n=4-6)
Method: The B-Raf(V600E)-Ba/F3 cell line was generously provided by Markus Warmuth (GNF). Ba/F3 cells were counted and diluted to a final concentration of 75,000 cells/ml in RPMI media and 50μl/well were plated into 384-well white solid bottom plates. 50nl of a 10mM compound stock in DMSO were pintool transferred followed by a 48h incubation time at 37°C for 48h. Finally, 25μl Cell-Titer-Glo (Promega) detection reagent was added each and luminescence read were taken on a […] (Molecular Devices Corp.) reader.

B-Raf(V600E) [2] = biological target: T1, B-Raf(V600E) (Homo sapiens, UniProt P15056, V600E); test: B-Raf(V600E)/MEK1(WT) cellular TR-FRET assay (double stable HEK293 T-Rex cells); type: cell-based; settings: MEK(WT) substrate, ~2h compound treatment, SD in parentheses (n=4-6); for IC50: 384-well
T1 construct: Full-length B-Raf wild-type (WT) and B-Raf(V600E) (NM_004333) cDNAs were subcloned from pcDNA3.1 into pcDNA5TO; expressed in transfected cells
T1 sequence (P15056 whole entry V600E): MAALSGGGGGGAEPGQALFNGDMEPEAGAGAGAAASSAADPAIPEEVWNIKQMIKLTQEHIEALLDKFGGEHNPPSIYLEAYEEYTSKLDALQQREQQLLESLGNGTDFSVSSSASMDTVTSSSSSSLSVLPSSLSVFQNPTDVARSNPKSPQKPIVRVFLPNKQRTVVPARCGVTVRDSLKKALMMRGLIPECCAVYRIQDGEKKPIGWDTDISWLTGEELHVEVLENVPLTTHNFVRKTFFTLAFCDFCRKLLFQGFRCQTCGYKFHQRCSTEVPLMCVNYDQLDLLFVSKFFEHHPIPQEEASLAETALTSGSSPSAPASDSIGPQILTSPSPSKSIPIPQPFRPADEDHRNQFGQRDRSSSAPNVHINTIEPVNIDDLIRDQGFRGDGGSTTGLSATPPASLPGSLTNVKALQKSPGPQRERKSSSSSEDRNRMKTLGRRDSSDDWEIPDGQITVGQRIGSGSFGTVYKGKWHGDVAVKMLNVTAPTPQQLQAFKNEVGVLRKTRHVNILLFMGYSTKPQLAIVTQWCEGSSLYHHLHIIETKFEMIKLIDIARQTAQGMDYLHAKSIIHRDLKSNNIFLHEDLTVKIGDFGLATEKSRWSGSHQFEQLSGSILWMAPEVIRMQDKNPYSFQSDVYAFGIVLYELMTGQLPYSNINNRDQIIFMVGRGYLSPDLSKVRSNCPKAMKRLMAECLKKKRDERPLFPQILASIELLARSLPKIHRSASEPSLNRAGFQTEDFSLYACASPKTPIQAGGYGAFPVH

B-Raf(V600E) [3] = biological target: T1, B-Raf(V600E); test: B-Raf(V600E)/MEK1(KD) cellular TR-FRET assay (double stable HEK293 T-Rex cells); type: cell-based; settings: for IC50: B-Raf(V600E) TR-FRET, kinase-inactive MEK(KD) substrate, 384-well, ~2h compound treatment, SD in parentheses (n=4-6)
B-Raf(V600E) [4] = biological target: T1, B-Raf(V600E); test: B-Raf(V600E)/cSTKpep-3 cellular TR-FRET assay (double stable HEK293 T-Rex cells); type: cell-based; settings: cSTKpep-3 substrate, ~2h compound treatment, SD in parentheses (n=4-6); for IC50: 384-well
AKT = biological target: T2, AKT (Homo sapiens, UniProt P31749); test: AKT/cSTKpep-3 cellular TR-FRET assay (transient, HEK293); type: cell-based; settings: Fig. 7C; comparable potencies in both assays
T2 construct: expressed in transfected cells; host or cells: HEK293 (transient co-transfection)
T2 sequence (P31749 whole entry): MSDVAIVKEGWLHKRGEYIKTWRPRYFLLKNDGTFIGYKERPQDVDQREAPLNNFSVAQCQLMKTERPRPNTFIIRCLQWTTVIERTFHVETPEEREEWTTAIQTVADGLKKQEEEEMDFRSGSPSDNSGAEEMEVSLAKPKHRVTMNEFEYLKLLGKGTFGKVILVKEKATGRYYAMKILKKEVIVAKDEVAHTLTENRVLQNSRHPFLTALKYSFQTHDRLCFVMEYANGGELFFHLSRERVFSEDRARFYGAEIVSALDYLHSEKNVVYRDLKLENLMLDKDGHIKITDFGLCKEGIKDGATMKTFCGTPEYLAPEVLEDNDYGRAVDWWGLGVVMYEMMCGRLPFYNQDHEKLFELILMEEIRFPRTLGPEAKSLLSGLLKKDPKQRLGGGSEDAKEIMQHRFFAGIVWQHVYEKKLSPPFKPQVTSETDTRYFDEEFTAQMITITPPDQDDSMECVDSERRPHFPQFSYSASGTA

[5] = tested on: AKT activation (Ser473 phosphorylation); test: p-AKT(Ser473) cellular TR-FRET assay with His-tagged AKT (HEK293); type: cell-based, human; settings: for observed potency (concentration range), AKT phosphorylation assay: Fig. 7B, comparable potencies in both assays
CamK2δ = test: CamK2δ/cSTKpep-1 cellular TR-FRET assay (transient, HEK 293); type: cell-based; settings: 5min ionomycin treatment (1µM)
Method: HEK293 cells were transfected using Fugene 6 (Roche) at a density of 8000 cells/well in 384-well plates and a final transfection volume of 30μl. The amounts of kinase and substrate plasmids per well varied for each experiment and are specified in the figure legends. Cell lysis and detection of phosphorylated or total substrate levels was performed 48h post transfection by addition of 30μl detection buffer (50 mM Hepes pH 7.2, 0.1% BSA, 20mM EDTA, 0.8M KF, and 2% Triton) containing anti-FLAG XL665 (2ng/ul) and Eu-pSTK (0.18ng/μl) or Eu-pMEK1 (0.24ng/μl). For the relative determination of total substrate levels 30μl detection buffer was added per well containing anti-FLAG XL665 (2ng/μl) and Eu-cMyc (0.3ng/μl). Plates were incubated for 3-6h at room temperature and TR-FRET readings taken on Acquest, Analyst GT (Molecular Devices Corp.), Envision or Viewlux (Perkin Elmer) plate readers. […]
Fig. (8). Induction of CamK2δ activity. Transient transfection reactions were performed in 384-well plates as indicated. HEK 293 were reverse transfected with 50ng CamK2δ and 50ng (black bars) or 25ng (gray bars) cSTKpep-1. CamK2δ activity was induced through 5min ionomycin treatment (1µM) and p-cSTKpep-1 was quantified by TR-FRET.

| SMILES | IC50 (B-Raf(V600E) [2]) | IC50 MEK(WT) 384-well (B-Raf(V600E) [2]) | IC50 (B-Raf(V600E) [3]) | IC50 (B-Raf(V600E) [4]) | IC50 cSTKpep-3 384-well (B-Raf(V600E) [4]) | observed potency (concentration range), cSTKpep-3 phosphorylation assay (AKT) | observed potency (concentration range), AKT phosphorylation assay [5] | further results |
| --- | --- | --- | --- | --- | --- | --- | --- | --- |
| O=c1cc(N2CCOCC2)oc2c(-c3ccccc3)cccc12 [LY294002, 2-(4-morpholinyl)-8-phenyl-4H-1-benzopyran-4-one] | > 33 µM | did not show any activity | > 33 µM | > 33 µM | did not show any activity | low micromolar | low micromolar | – |
| O=C(NOC[C@H](O)CO)c1ccc(F)c(F)c1Nc1ccc(I)cc1F [PD0325901] | – | – | – | – | – | – | – | IC50 MEK(KD) 384-well (B-Raf(V600E) [3]): inactive; IC50 ([1]; Mus musculus, BaF3, 48h): […] |
| CN[C@@H]1C[C@H]2O[C@@](C)([C@@H]1OC)n1c3ccccc3c3c4c(c5c6ccccc6n2c5c31)C(=O)NC4 [Staurosporine] | – | – | – | – | – | – | – | factor between activity on p-AKT versus p-cSTKpep-3 ([5]; p-AKT IC50 versus p-cSTKpep-3 IC50): ~ 100 fold |
| COC[C@H]1OC(=O)c2coc3c2[C@@]1(C)C1=C(C3=O)[C@@H]2CCC(=O)[C@@]2(C)C[C@H]1OC(C)=O [Wortmannin] | > 33 µM | did not show any activity | > 33 µM | > 33 µM | did not show any activity | low nanomolar | low nanomolar | – |
| C[C@H](CCC(=O)O)C[C@H](C)C[C@H](C)C(=O)/C=C(\O)[C@H](C)C[C@H](C)C/C=C/[C@@H](C)[C@@H](O)[C@@H](C)[C@@H](O)C[C@@H]1CC[C@@](C)([C@H]2CC[C@@](C)([C@@H](C)O)O2)O1 [ionomycin] | – | – | – | – | – | – | – | induction of CamK2δ activity / cSTKpep-1 phosphorylation (CamK2δ): ionomycin inducible |
